Data reported in patent US20090182135A1, “Amino modifiers” (priority 2007, published 2009).
Where two headings read alike, the source gives them in different places.

Tests used:
[1] = commercially available trityl protecting groups, values stated without experiment; cited from earlier work
[2] = Stability of the amino modifier reagent in acetonitrile; assay type: physicochemical; settings: room temperature
Description: The sulfoxy derivative survives conditions of polynucleotide synthesis and can either be cleaved with standard deblock solution, or left intact for an HPLC purification. […] UV quantification for release of the new protecting group is possible. Extinction coefficients (L/(mol×cm) shown in the Scheme above were measured in 2% TFA/DCM.

[3] = pKR+ determination of trityl alcohols by UV spectrophotometry in aqueous sulphuric acid solutions (Deno acidity function HR); assay type: physicochemical; settings: for pKR+ (477 nm): absorbance at 477 nm
From the text: The physico-chemical properties of trityl cations have been thoroughly investigated. In 1955 Deno et al reported an empirical Acidity Function HR which allows the comparison of the stability of different trityl cations (N. C. Deno, J. J. Jaruzelski and A. Schriesheim, J. Am. Chem. Soc. 1955, 77, 3044). Using the acidity function and the methods described by Deno it is possible to evaluate the pKR+ parameter for trityl alcohol derivatives, which is a direct indication of the stability of the corresponding trityl cations.
Once the acidity function HR for a particular acidic solution is known, the pKR+ of a triarylcarbinol dissolved in that acidic solution can be calculated in a straightforward manner once the ratio [R^+]/[ROH] has been experimentally determined. Therefore, in order to determine pKR+ values in acidic solutions of known HR, the ratio [R^+]/[ROH] must be established or, what is the equivalent, the degree of ionization of the triarylcarbinol.
The [R^+]/[ROH] ratio can be determined by spectrophotometic means. In particular, for trityl derivatives, UV spectrophotometry is useful since trityl cations and their parent molecules show completely different absorption spectra in the UV region.
In general, the experimental procedure for determining pKR+ for a trityl alcohol is summarised as follows. A solution of the triaryl alcohol in question in acetic acid is prepared in a way that the final concentration of the solutions to be analysed by UV spectrometry are in the range of 10^−5 to 10^−7 molar. A constant amount of the acetic acid solution so prepared is then added to the solutions of sulphuric acid (for instance, using a micropipette) to carry out the UV spectrometry experiments. It is recommended that the values of E are measured at the λmax of the trityl cation.
Starting from the most concentrated sulphuric acid solutions, samples are prepared until it is observed that the absorbance of the samples starts to decay. In the range of concentrations prior to the decay of absorbance, the triaryl alcohol is dissolved in a sufficiently concentrated sulphuric to completely ionise it. Therefore, ε=εR. In the region of sulphuric acid concentrations in which the absorbance of the samples decays, a series of values for ε are collected.
Finally, a concentration of sulphuric acid is reached in which the absorbance at λmax is negligible (or the alcohol starts to precipitate). This indicates the end of the experiment and values for the [R^+]/[ROH] for a series of given HR are available.
The pKR+ can be determined using the equation
Using UV spectrometry, the λmax of the trityl cation was determined to be approximately 477 nm, as illustrated in FIG. 1. Absorbance values were recorded at this wavelength for different concentrations of sulphuric acid. […]

## 4,4′-dimethoxytrityl [DMTr]
[1]
  pKR+: −1.24

## COc1ccc(C(NCCCCCCOP(OCCC#N)N(C(C)C)C(C)C)(c2ccc(OC)cc2)c2ccc([S+](C)[O-])cc2)cc1 (stereo not shown) [DMS(O)MTr amino modifier, 6-(4,4′-dimethoxy-4″-(methylsulfinyl)tritylamino)hexylolxy-(2-cyanoethoxy) diisopropylaminophosphine]
[2]
  stability of the reagent in solution: stable in acetonitrile at room temperature for at least two weeks

## COc1ccc(C(O)(c2ccc(C)cc2)c2ccc(C)cc2)cc1 [MDMeTrOH, 4-methoxy-4′,4″-dimethyltrityl alcohol]
[3]; H2SO4 20%
  pKR+ (477 nm): −2.7
[3]; H2SO4 25%
  pKR+ (477 nm): −2.6
[3]; H2SO4 30%
  pKR+ (477 nm): −2.5
[3]; overall value for the trityl alcohol, UV at λmax of the trityl cation in sulphuric acid solutions
  pKR+: −2.6

## monomethoxytrityl [MMTr]
[1]
  pKR+: −3.40
